Here are results for three compounds from patent US20120263732A1, “CD40 ANTIBODY FORMULATION AND METHODS” (PFIZER INC., priority 2003, published 2012).

For one experiment, the system named is breast tumor, BT 474. Description: Established BT 474 breast tumors: antibody and/or cisplatin. As to conditions: single IP injection once tumors reached 200 mm^2; antibody 1 mg/kg, cisplatin 2.5 mg/kg; Day 84. The format is in vivo, human tumor in SCID-beige mice. The protocol:
The therapeutic effects of an anti-CD40 antibody (21.4.1) in preventing the growth of human breast tumors alone and in the presence of cisplatin was examined.
SCID-beige mice were injected SC with the breast tumor, BT 474. The antibody (1 mg/kg, IP) and/or cisplatin (2.5 mg/kg, IP) were administered as a single injection once tumors reached a size of 200 mm^2. Tumor growth was measured on Day 84 after challenge.

Experiment [1] deals with human breast tumor, BT 474. Put plainly: BT 474 breast tumor growth with human T cells and DC in SCID-beige mice. In kind it is in vivo. As to conditions: in the presence of immune cells; single injection. From the text:
SCID-beige mice were challenged with the human breast tumor, BT 474 (ATCC HTB-20), SC, together with human peripheral blood T cells and DC. Animals received a single dose of 21.4.1 (IP) at the time of tumor injection.

The subject of a further experiment is B cell lymphoma Daudi. Description: Mortality in systemic Daudi B cell lymphoma model. In kind it is in vivo, human tumor in SCID-beige mice. The following applies: Daudi IV; single IP injection; monitored for 58 days. The protocol: The ability of an anti-CD40 antibody according to the invention (21.4.1) to delay mortality in a CD40(+) systemic tumor model using a B cell lymphoma was assessed.
SCID-beige mice were injected IV with the B cell lymphoma Daudi (ATCC CCL-213). 21.4.1 was administered as a single injection (IP) at the time of tumor injection. Mortality was monitored for 58 days.

In experiment [2] the test system is CD40(+) Raji B cell lymphoma. Description: CD40(+) Raji B cell lymphoma growth in SCID-beige mice. The format is in vivo, human tumor in SCID-beige mice. The protocol: SCID-beige mice were injected subcutaneously with the CD40(+) Raji B cell lymphoma (ATCC CCL-86) (SC) followed by a single dose of 21.4.1 (IP) at the time of tumor injection. Some animals were also injected with human T cells and DC. Tumor growth was assessed on Day 21.

Experiment [3] concerns CD40(−) colon carcinoma, Lovo. Description: CD40(−) Lovo colon carcinoma growth in SCID-beige mice. As to conditions: immune cells present; compared with K562 results. The format is in vivo, human tumor in SCID-beige mice. The protocol: (§1) The effects of a CD40 antibody (21.4.1) on the growth of CD40(−) tumors (e.g., erythroleukemia and colon carcinoma) were examined. In particular, K562 tumors were chosen to assess the efficacy of 21.4.1 against a CD40(−) low immunogenic (class I and II negative) tumor.
(§2) SCID-beige mice were injected SC with the CD40(−) erythroleukemic tumor, K562 (ATCC CCL-243) alone or in the presence of human peripheral blood T cells and DCs. Animals received a single IP injection of 21.4.1 either at the time of tumor injection or 5 days later using various dose levels.
The amount of 21.4.1 to cause a 50% inhibition of tumor growth was 0.005 mg/kg corresponding to a Cmax serum concentration of 0.05 μg/mL. […] The results were identical when 21.4.1 was administered on Day 0 or Day +5 relative to tumor challenge. The growth of these CD40(−) tumors was not inhibited by 21.4.1 in the absence of immune cells.

Experiment [4] concerns CD40(−) erythroleukemic tumor, K562. Put plainly: CD40(−) K562 erythroleukemic tumor growth in SCID-beige mice. As to conditions: K562 with human T cells and DC; single IP injection; Day 21. In kind it is in vivo, human tumor in SCID-beige mice. The protocol:
as §1, §2

Consider `N.N.[Cl][Pt][Cl]` [cisplatin, cis-diaminedichloroplatinum, reference compound], for which the “tumor growth, single agent” value in the experiment with breast tumor, BT 474 is listed as “prevented tumor growth”.

On to “3.1.1: human anti-CD40 antibody; amino acid sequences SEQ ID NOs:1-4; hybridoma deposit PTA-3600”, for which the “growth of BT 474 cells” value in experiment [1] is reported as “demonstrated”. Further, in the experiment with B cell lymphoma Daudi, the “mortality induced by systemically administered tumor cell line” value is recorded as “demonstrated”. The “anti-tumor activity against CD40(+) tumors when immune cells were present” value in experiment [2] (Raji) is given as “demonstrated”. For the same compound, the “tumor growth, single agent” value with breast tumor, BT 474 is recorded as “demonstrated”. For the same compound, the “inhibition of Lovo colon carcinoma growth” value in experiment [3] is reported as “demonstrated”.

Turning to “3.1.1H-A78T-V88A-V97A/3.1.1L-L4M-L83V: 3.1.1 variant with three heavy chain and two light chain substitutions; SEQ ID NOs:9, 2, 10, 4”, the “amount to cause a 50% inhibition of tumor growth (IC50)” value is less than 0.01 mg/kg in experiment [4] and less than 0.01 mg/kg in experiment [2] (Raji in the absence of immune cells, single IP dose, Day 21).
